Reference: US9221809B2 (MERCK SHARP & DOHME CORP., priority 2011, dated 2015)
Structures can show the parent of a compound that is named as a salt.

These compounds were tested against IRAK4 (Homo sapiens (Human), UniProt Q9NWZ3) (assay: IRAK4 kinase activity, IMAP fluorescence polarization assay). Settings: 100 μM ATP, 0.5 nM GST tagged IRAK4; read-out: IRAK4 IC50.
Format: biochemical
Outline: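 Fluorescence polarization (IMAP nanoparticle binding of phosphopeptide) reports activity after a 30 min, 25 °C reaction. Conditions: 100 μM ATP, 0.5 nM GST-IRAK4, 100 nM fluorescent peptide, 10 mM Tris pH 7.2, 1 mM MgCl2, 1 mM DTT, 0.01% Tween 20.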

Chain of IRAK4 (Q9NWZ3 whole entry): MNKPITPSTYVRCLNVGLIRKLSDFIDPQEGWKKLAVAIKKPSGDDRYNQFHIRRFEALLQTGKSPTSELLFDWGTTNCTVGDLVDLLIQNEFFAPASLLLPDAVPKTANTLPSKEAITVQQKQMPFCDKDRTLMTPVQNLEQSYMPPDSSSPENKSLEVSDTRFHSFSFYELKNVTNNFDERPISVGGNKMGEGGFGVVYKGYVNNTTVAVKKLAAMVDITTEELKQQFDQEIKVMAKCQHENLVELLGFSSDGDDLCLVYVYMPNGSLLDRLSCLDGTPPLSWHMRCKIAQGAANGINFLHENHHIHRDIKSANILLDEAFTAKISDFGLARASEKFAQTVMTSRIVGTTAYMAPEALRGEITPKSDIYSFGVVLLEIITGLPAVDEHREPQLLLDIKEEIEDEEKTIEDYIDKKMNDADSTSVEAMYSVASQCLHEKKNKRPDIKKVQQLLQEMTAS

IC50 [nM]	Compound
151	CC(C)Nc1nc(N[C@@H]2C[C@H](CO)[C@@H](O)[C@H]2O)c(-c2nc3ccccc3s2)c(=O)[nH]1 [Example 5, 5-(Benzo[d]thiazol-2-yl)-6-((1R,2S,3R,4R)-2,3-dihydroxy-4-(hydroxymethyl)cyclopentylamino)-2-(isopropylamino)pyrimidin-4(3H)-one.HCl]
46	O=c1[nH]c(N2CCOCC2)nc(N[C@@H]2CCCNC2)c1-c1nc2ccc(F)cc2s1 [Example 112, (R)-5-(6-fluorobenzo[d]thiazol-2-yl)-2-morpholino-6-(piperidin-3-ylamino)pyrimidin-4(3H)-one.HCl]
284	O=c1[nH]c(Nc2ccc(F)cc2)nc(N[C@@H]2C[C@H](CO)[C@@H](O)[C@H]2O)c1-c1nc2ccccc2s1 [Example 52, 5-(Benzo[d]thiazol-2-yl)-6-((1R,2S,3R,4R)-2,3-dihydroxy-4-(hydroxymethyl)cyclopentylamino)-2-(4-fluorophenylamino)pyrimidin-4(3H)-one.HCl]
18	O=c1[nH]c(N2CCCC2)nc(N[C@@H]2C[C@H](CO)[C@@H](O)[C@H]2O)c1-c1nc2ccccc2s1 [Example 25, 5-(Benzo[d]thiazol-2-yl)-6-(((1R,2S,3R,4R)-2,3-dihydroxy-4-(hydroxymethyl)cyclopentyl)amino)-2-(pyrrolidin-1-yl)pyrimidin-4(3H)-one.HCl]
327	O=c1[nH]c(Nc2ccccc2)nc(N[C@@H]2C[C@H](CO)[C@@H](O)[C@H]2O)c1-c1nc2ccccc2s1 [Example 53, 5-(Benzo[d]thiazol-2-yl)-6-((1R,2S,3R,4R)-2,3-dihydroxy-4-(hydroxymethyl)cyclopentylamino)-2-(phenylamino)pyrimidin-4(3H)-one.HCl]
542	CN(C)c1nc(N[C@@H]2C[C@H](CO)[C@@H](O)[C@H]2O)c(-c2nc3ccccc3s2)c(=O)[nH]1 [Example 30, 5-(Benzo[d]thiazol-2-yl)-6-(((1R,2S,3R,4R)-2,3-dihydroxy-4-(hydroxymethyl)cyclopentyl)amino)-2-(dimethylamino)pyrimidin-4(3H)-one.HCl]
590	O=c1[nH]c(NC2CCC2)nc(N[C@@H]2C[C@H](CO)[C@@H](O)[C@H]2O)c1-c1ccccn1 [Example 21, 2-(Cyclobutylamino)-6-((1R,2S,3R,4R)-2,3-dihydroxy-4-(hydroxymethyl)cyclopentylamino)-5-(pyridin-2-yl)pyrimidin-4(3H)-one.HCl]
25	CS(=O)(=O)N1CCN(c2nc(N[C@@H]3C[C@H](CO)[C@@H](O)[C@H]3O)c(-c3nc4ccccc4s3)c(=O)[nH]2)CC1 [Example 12, 5-(Benzo[d]thiazol-2-yl)-6-((1R,2S,3R,4R)-2,3-dihydroxy-4-(hydroxymethyl)cyclopentylamino)-2-(4-(methylsulfonyl)piperazin-1-yl)pyrimidin-4(3H)-one.HCl]
65	CC(C)(O)[C@H]1C[C@@H](Nc2nc(NC3CCC3)[nH]c(=O)c2-c2nc3ccccc3s2)[C@H](O)[C@@H]1O [Example 45, 5-(Benzo[d]thiazol-2-yl)-2-(cyclobutylamino)-6-((1R,2S,3R,4S)-2,3-dihydroxy-4-(2-hydroxypropan-2-yl)cyclopentylamino)pyrimidin-4(3H)-one.HCl]
1830	O=c1[nH]c(N2CCOCC2)nc(N[C@@H]2CCCNC2)c1-c1nccs1 [Example 101, (R)-2-morpholino-6-(piperidin-3-ylamino)-5-(thiazol-2-yl)pyrimidin-4(3H)-one.HCl]
1470	Cc1cccc(-c2c(N[C@@H]3CCCNC3)nc(N3CCOCC3)[nH]c2=O)n1 [Example 109, (R)-5-(6-methylpyridin-2-yl)-2-morpholino-6-(piperidin-3-ylamino)pyrimidin-4(3H)-one]
14	O=c1[nH]c(N2CCCC2)nc(N[C@@H]2CCCNC2)c1-c1nc2c(C3CC3)nccc2s1 [Example 118, (R)-5-(4-cyclopropylthiazolo[4,5-c]pyridin-2-yl)-6-(piperidin-3-ylamino)-2-(pyrrolidin-1-yl)pyrimidin-4(3H)-one.HCl]

Compound	IC50 [nM]
Cc1cccc2nc(-c3c(N[C@@H]4CCCNC4)nc(N4CCOCC4)[nH]c3=O)sc12 [Example 340, (R)-5-(7-methylbenzo[d]thiazol-2-yl)-2-morpholino-6-(piperidin-3-ylamino)pyrimidin-4(3H)-one]	580

Same assay, conditions: 100 μM ATP; read-out: IC50

IC50 [nM]	Compound
1400	CCN1CCC(c2nc(N[C@@H]3CCCNC3)c(-c3nc4ccccc4s3)c(=O)[nH]2)CC1 [Example 227]
167	N#Cc1cccc(-c2c(N[C@@H]3CCCNC3)nc(N3CCOCC3)[nH]c2=O)n1 [Example 221, (R)-6-(2-morpholino-6-oxo-4-(piperidin-3-ylamino)-1,6-dihydropyrimidin-5-yl)picolinonitrile]
330	O=c1[nH]c(N2CCOCC2)nc(NCC2CCNCC2)c1-c1nc2ccccc2s1 [Example 271, 5-(1,3-benzothiazol-2-yl)-2-(morpholin-4-yl)-6-[(piperidin-4-ylmethyl)amino]-3,4-dihydropyrimidin-4-one; trifluoroacetic acid]
74	CN(C)c1nc(N[C@@H]2CCCNC2)c(-c2nc3ccccc3s2)c(=O)[nH]1 [Example 289, (R)-5-(benzo[d]thiazol-2-yl)-2-(dimethylamino)-6-(piperidin-3-ylamino)pyrimidin-4(3H)-one]
150	CC1(Nc2nc(N3CCOCC3)[nH]c(=O)c2-c2nc3ccccc3s2)CCCNC1 (stereo not drawn) [Example 248, 5-(1,3-benzothiazol-2-yl)-6-[(3-methylpiperidin-3-yl)amino]-2-(morpholin-4-yl)-3,4-dihydro-pyrimidin-4-one]
21	COc1ccc(N2CCC3(CCN(c4nc(N[C@@H]5CCCNC5)c(-c5nc6ccccc6s5)c(=O)[nH]4)C3)C2)cc1 (stereo partly drawn) [Example 330, 5-(1,3-benzothiazol-2-yl)-2-[7-(4-methoxyphenyl)-2,7-diazaspiro[4.4]nonan-2-yl]-6-[[(3R)-piperidin-3-yl]amino]-3,4-dihydropyrimidin-4-one]
25	O=c1[nH]c(N2CC3(COC3)C2)nc(N[C@@H]2CCCNC2)c1-c1nc2ccccc2s1 [Example 317, 5-(1,3-benzothiazol-2-yl)-2-[2-oxa-6-azaspiro[3.3]heptan-6-yl]-6-[[(3R)-piperidin-3-yl]amino]-3,4-dihydropyrimidin-4-one]
330	CCC(CO)Nc1nc(N2CCOCC2)[nH]c(=O)c1-c1nc2ccccc2s1 (stereo not drawn) [Example 262, 5-(benzo[d]thiazol-2-yl)-6-(1-hydroxy-butan-2-ylamino)-2-morpholino-pyrimidin-4(3H)-one]
13	CC(=O)N1CCC2(CCN(c3nc(N[C@@H]4CCCNC4)c(-c4nc5ccccc5s4)c(=O)[nH]3)C2)C1 (stereo partly drawn) [Example 326, 2-[7-acetyl-2,7-diazaspiro[4.4]nonan-2-yl]-5-(1,3-benzothiazol-2-yl)-6-[[(3R)-piperidin-3-yl]amino]-3,4-dihydropyrimidin-4-one]
340	O=c1[nH]c(N2CCOCC2)nc(NCC2CCCCN2)c1-c1ccc2ccccc2n1 (stereo not drawn) [Example 276, 2-morpholino-6-(piperidin-2-ylmethylamino)-5-(quinolin-2-yl)pyrimidin-4(3H)-one]
450	O=c1[nH]c(C2CCN(C3CCCCC3)CC2)nc(N[C@@H]2CCCNC2)c1-c1nc2ccccc2s1 [Example 232, (R)-5-(1,3-benzothiazol-2-yl)-2-(1-cyclo-hexylpiperidin-4-yl)-6-[(piperidin-3-yl)amino]-3,4-dihydropyrimidin-4-one]

Same assay, conditions: 100 μM ATP; read-out: IRAK4 IC50

Compound	IC50 [nM]
O=c1[nH]c(N2CCOCC2CO)nc(N[C@@H]2CCCNC2)c1-c1nc2ccccc2s1 (stereo partly drawn) [Example 125, 5-(benzo[d]thiazol-2-yl)-2-(3-(hydroxymethyl)morpholino)-6-((R)-piperidin-3-ylamino)pyrimidin-4(3H)-one]	864
C[C@@H]1COCCN1c1nc(N[C@@H]2CCCNC2)c(-c2nc3ccccc3s2)c(=O)[nH]1 [Example 127]	1690
O=c1[nH]c(N2CCN(c3cccc(Cl)n3)CC2)nc(N[C@@H]2CCCNC2)c1-c1nc2ccccc2s1 [Example 137, (R)-5-(benzo[d]thiazol-2-yl)-2-(4-(6-chloropyridin-2-yl)piperazin-1-yl)-6-(piperidin-3-ylamino)pyrimidin-4(3H)-one]	25
CC1CN(c2nc(N[C@@H]3CCCNC3)c(-c3nc4ccccc4s3)c(=O)[nH]2)CCO1 (stereo partly drawn) [Example 126, 5-(benzo[d]thiazol-2-yl)-2-(2-methylmorpholino)-6-((R)-piperidin-3-ylamino)pyrimidin-4(3H)-one]	97

Further lines, results first:

IC50 [nM]	Compound
5	COc1ccc(N2CCN(c3nc(N[C@@H]4CCCNC4)c(-c4nc5ccccc5s4)c(=O)[nH]3)CC2)nc1 [Example 141, (R)-5-(benzo[d]thiazol-2-yl)-2-(4-(5-methoxypyridin-2-yl)piperazin-1-yl)-6-(piperidin-3-ylamino)pyrimidin-4(3H)-one]
757	COc1ccc(N2CC3CC2CN3c2nc(N[C@@H]3CCCNC3)c(-c3ccc4ccccc4n3)c(=O)[nH]2)cc1 (stereo partly drawn) [Example 195, 2-(5-(4-methoxyphenyl)-2,5-diazabicyclo[2.2.1]heptan-2-yl)-6-((R)-piperidin-3-ylamino)-5-(quinolin-2-yl)pyrimidin-4(3H)-one]
537	CC(C)(C)c1cccc(-c2c(N[C@@H]3CCCNC3)nc(N3CCOCC3)[nH]c2=O)n1 [Example 197]
14	CS(=O)(=O)c1cc(F)ccc1N1CCN(c2nc(N[C@@H]3CCCNC3)c(-c3nc4ccccc4s3)c(=O)[nH]2)CC1 [Example 150, (R)-5-(benzo[d]thiazol-2-yl)-2-(4-(4-fluoro-2-(methylsulfonyl)phenyl)piperazin-1-yl)-6-(piperidin-3-ylamino)pyrimidin-4(3H)-one]
9	O=c1[nH]c(N2CCN(c3cc(Cl)ccn3)CC2)nc(N[C@@H]2CCCNC2)c1-c1nc2ccccc2s1 [Example 145, (R)-5-(benzo[d]thiazol-2-yl)-2-(4-(4-chloropyridin-2-yl)piperazin-1-yl)-6-(piperidin-3-ylamino)pyrimidin-4(3H)-one]
